# Experimental data published in patent publication US20190083679A1, “Amorphous Inorganic Polyphosphate-Calcium-Phosphate And Carbonate Particles As Morphogenetically Active Coatings and Scaffolds” (NanotecMARIN GmbH, priority 2014, published 2019).
# Key:
# [1] = system: carbonic anhydrase IX (CA IX); assay: CA IX gene expression in SaOS-2 cells on discs (qRT-PCR); type: cell-based, human; details: normalized to GAPDH, 100 μM gallium nitrate
# Protocol: As a marker for the functional activity of the SaOS-2 cells, growing onto titanium discs, the expression of the two genes encoding for the enzymes carbonic anhydrase IX (CA IX) and alkaline phosphatase (ALP) was determined by quantitative qRT-PCR.
# (SEQ ID NO: 8). […] (SEQ ID NO. 10).
# [2] = system: alkaline phosphatase (ALP); details: normalized to GAPDH, 100 μM gallium nitrate
# Protocol: The expression values were normalized to the expression of GAPDH. […] The cultures were incubated at first in the absence of the MAC for 3 d; then they were transferred to medium, supplemented with the MAC, and the incubation was continue for additional 3 or 5 d, as outlined. Then the cells were harvested, RNA was extracted and subjected to qRT-PCR for determination of both CA IX and ALP transcripts; the expression of GAPDH served as reference. Data are expressed as mean values±SD for five independent experiments; each experiment was carried out in duplicate (* P<0.01). nd, not detectable.
# In parallel, the expression of the gene for the enzyme ALP was determined, likewise by qRT-PCR.
# Bone cell like SaOS-2 cells (human osteogenic sarcoma cells) are cultured in McCoy's medium (Biochrom-Seromed), supplemented with 2 mM L-glutamine, 10% or 15% heat-inactivated fetal calf serum (FCS), and 100 units/ml penicillin and 100 μg/ml streptomycin. The cells are incubated in 25-cm^2 flasks or in 6-well plates (surface area 9.46 cm^2; e.g. from Orange Scientifique) in a humidified incubator at 37° C. […]
# The quantitative real-time RT [reverse transcription]-PCR (qRT-PCR) technique is applied to determine the effect of the discs on the expression levels of the following genes in SaOS-2 cells. […] After determinations of the Ct values the expression of the respective transcripts are calculated.
compound,measurement,setting,value
O=[N+]([O-])[O-].O=[N+]([O-])[O-].O=[N+]([O-])[O-].[Ga+3] [gallium nitrate],"CA IX expression, with Ga, −MAC 0 d",[1],0.24±0.05
same,"CA IX expression, with Ga, +MAC 5 d",[1]; 3 d −MAC then 5 d +MAC,0.89±0.11
same,"ALP expression, with Ga, −MAC 0 d",[2],0.027 ± 0.004
same,"ALP expression, with Ga, +MAC 5 d",[2]; 3 d −MAC then 5 d +MAC,0.111 ± 0.010
